Tests used:
[1] = Lipophilicity, log D of the compound at pH 7.4; format: physicochemical; settings: buffer
[2] = Clearance in rat at […], iv; format: ADME, organism-based; settings: in vivo
[3] = Half life in rat at […], iv; format: ADME, organism-based; settings: in vivo
[4] = Cmax in rat at […], sc; format: ADME, organism-based; set-up: dose 5.9 umol/kg, route subcutaneous; settings: in vivo
[5] = AUC in rat at […], iv; format: ADME, organism-based; settings: plasma
[6] = Intrinsic clearance in rat liver microsomes; format: ADME, Microsome; settings: read-out: CLH
[7] = Ratio of drug level in brain to plasma in Sprague-Dawley rat; format: ADME; settings: read-out: BPR
[8] = AUC in rat at […], sc; format: ADME, organism-based; settings: plasma
[9] = Intrinsic clearance in human liver microsomes at 1 uM; format: ADME, Microsome; settings: read-out: CLH
[10] = Apparent permeability from apical to basal side of human Caco2 cells at 10 uM; format: ADME, cell-based; settings: Caco-2
[11] = Cmax in rat at 58 umol/kg, po; format: ADME, organism-based; set-up: dose 58 umol/kg, route oral; settings: in vivo
[12] = Cmax in rat at 12 umol/kg, po; format: ADME, organism-based; set-up: dose 12 umol/kg, route oral; settings: in vivo
[13] = Clearance in rat at 11 umol/kg, iv; format: ADME, organism-based; settings: in vivo
[14] = Drug excretion in iv dosed rat faces; format: ADME, organism-based, Feces; settings: faeces, read-out: Drug excretion
[15] = AUC in rat at 12 umol/kg, po; format: ADME, organism-based; settings: plasma
[16] = Drug excretion in rat faces at high dose, iv; format: ADME, Feces; settings: faeces, read-out: Drug excretion
[17] = AUC in rat at 11 umol/kg, iv; format: ADME, organism-based; settings: plasma
[18] = Half life in rat at 11 umol/kg, iv; format: ADME, organism-based; settings: in vivo
[19] = AUC in dog at […], iv; format: ADME, organism-based, Canis lupus familiaris; settings: plasma
[20] = Clearance in dog at […], iv; format: ADME, organism-based, Canis lupus familiaris; settings: in vivo
[21] = Oral bioavailability in rat at 12 umol/kg; format: ADME, organism-based; settings: in vivo
[22] = Half life in dog at […], iv; format: ADME, organism-based, Canis lupus familiaris; settings: in vivo
[23] = AUC in rat at 58 umol/kg, po; format: ADME, organism-based; settings: plasma
[24] = Clearance in dog hepatocytes assessed per 10^6 cells; format: ADME, cell-based, Canis lupus familiaris, Hepatocyte; settings: read-out: CLH
[25] = Oral bioavailability in rat at 58 umol/kg; format: ADME, organism-based; settings: in vivo

CC(C)N1Cc2c(NC(c3ccccc3)c3ccccc3)nc(N3CCOCC3)nc2C1=O
logD [1]: 4.3

CC(=O)N1CCN(c2nc(NC(C)(C)Cc3ccc(Cl)cc3)c3c(n2)C(=O)N(C(C)C)C3)CC1
clearance [2]: 54 mL/min/kg
half-life [3]: 0.9 h
Cmax [4]: 1000 nM
AUC [5]: 0.7 µM·h
microsomal CLint [6]: 83 µL/min/mg
Kp [7]: 0.02
AUC [8]: 2.8 µM·h

CC(=O)N1CCN(c2nc(NCc3ccc(Cl)cc3)c3c(n2)C(=O)N(C(C)C)C3)CC1
microsomal CLint at 1 µM [9]: 6 µL/min/mg

CC(=O)N1CCN(c2nc(NCc3ccc(C(F)(F)F)cc3)c3c(n2)C(=O)N(C(C)C)C3)CC1
microsomal CLint at 1 µM [9]: 31 µL/min/mg

CC(=O)N1CCN(c2nc(NCc3ccc(OC(F)(F)F)cc3)c3c(n2)C(=O)N(C(C)C)C3)CC1
microsomal CLint at 1 µM [9]: 4 µL/min/mg
Papp A→B at 10 µM [10]: 2.9 ×10⁻⁶ cm/s

COc1cc(OC(F)(F)F)ccc1CNc1nc(N2CCN(C(C)=O)CC2)nc2c1CN(C(C)C)C2=O
microsomal CLint at 1 µM [9]: 31 µL/min/mg

CC(=O)N1CCN(c2nc(N[C@H](C)c3ccc(OC(F)(F)F)cc3)c3c(n2)C(=O)N(C(C)C)C3)CC1
microsomal CLint at 1 µM [9]: 22 µL/min/mg
Papp A→B at 10 µM [10]: 4.5 ×10⁻⁶ cm/s

COc1ccc([C@@H](C)Nc2nc(N3CCN(C(C)=O)CC3)nc3c2CN(C(C)C)C3=O)cc1
microsomal CLint at 1 µM [9]: 4 µL/min/mg

CCOc1ccc([C@@H](C)Nc2nc(N3CCN(C(C)=O)CC3)nc3c2CN(C(C)C)C3=O)cc1
Cmax [11]: 6900 nM
microsomal CLint at 1 µM [9]: 10 µL/min/mg
Cmax [12]: 100 nM
clearance [2]: 88 mL/min/kg
clearance [13]: 22 mL/min/kg
dose excreted [14]: > 15%
AUC [15]: 0.4 µM·h
Papp A→B at 10 µM [10]: 2.4 ×10⁻⁶ cm/s
dose excreted [16]: < 3%
AUC [17]: 8.05 µM·h
half-life [3]: 0.5 h
half-life [18]: 2 h
AUC [19]: 4.8 µM·h
clearance [20]: 8 mL/min/kg
bioavailability [21]: 16%
half-life [22]: 14.5 h
AUC [23]: 1.8 µM·h
AUC [5]: 0.4 µM·h
microsomal CLint [6]: 17 µL/min/mg
hepatocyte CLint [24]: 2.5 µL/min/1e6 cells
logD [1]: 3
bioavailability [25]: 62%

CCOc1ccc([C@@H](CC)Nc2nc(N3CCN(C(C)=O)CC3)nc3c2CN(C(C)C)C3=O)cc1
microsomal CLint at 1 µM [9]: 10 µL/min/mg
microsomal CLint [6]: 58 µL/min/mg

CCOc1ccc([C@H](Nc2nc(N3CCN(C(C)=O)CC3)nc3c2CN(C(C)C)C3=O)C(F)(F)F)cc1
microsomal CLint at 1 µM [9]: 5 µL/min/mg
Papp A→B at 10 µM [10]: 2 ×10⁻⁶ cm/s

CCOc1ccc([C@@H](C)Nc2nc(N3CCN(C(C)=O)CC3)nc3c2CN(C(C)C)C3=O)cc1F
microsomal CLint at 1 µM [9]: 17 µL/min/mg
Papp A→B at 10 µM [10]: 0.8 ×10⁻⁶ cm/s

CCOc1ncc([C@@H](C)Nc2nc(N3CCN(C(C)=O)CC3)nc3c2CN(C(C)C)C3=O)cc1F
microsomal CLint at 1 µM [9]: 7 µL/min/mg

CC(=O)N1CCN(c2nc(NCc3cnc4ccccc4c3)c3c(n2)C(=O)N(C(C)C)C3)CC1
microsomal CLint at 1 µM [9]: 11 µL/min/mg
Papp A→B at 10 µM [10]: 0.1 ×10⁻⁶ cm/s

CC(=O)N1CCN(c2nc(NCc3cc4ccccc4cn3)c3c(n2)C(=O)N(C(C)C)C3)CC1
microsomal CLint at 1 µM [9]: 16 µL/min/mg
Papp A→B at 10 µM [10]: 0.6 ×10⁻⁶ cm/s

CC(=O)N1CCN(c2nc3c(c(N(C)Cc4cc5ccccc5cn4)n2)CN(C(C)C)C3=O)CC1
microsomal CLint at 1 µM [9]: 19 µL/min/mg
Papp A→B at 10 µM [10]: 2.9 ×10⁻⁶ cm/s

From ChEMBL document CHEMBL2010731, “Discovery of P2X3 selective antagonists for the treatment of chronic pain” (Bioorg Med Chem Lett, 2012)
